{"source": "patent US8871492B2", "about": "“Anti-dementia substance from Hericium erinaceum and method of extraction” (priority 2008, dated 2014)", "system": "Aβ1-40-induced AD rats", "assay": "Morris Water Maze Test on Aβ1-40-induced AD rats", "type": "in vivo, Sprague-Dawley male rats", "settings": "for Arrival Time of Platform: Donepezil 1 mg/kg by stomach tube once per day", "experimental": "The control group was injected with 5 μL of saline. […] From the fourth week after the administration, learning and memory-related behavior was assessed using the Morris Water Maze Test on ten rats arbitrarily-chosen from each group once a day for one week (from day 1 to day 6 the time to arrive at the platform is measured, and on day 7 the platform is removed and the frequency to cross (pass by) the platform location is counted). After completing the behavioral test, the rats were sacrificed. The cerebral tissues separated from half of the rats of each group were used for pathological examination, and the olfactory bulb, hippocampus, locus ceruleus, and cerebral cortex from another half were used to determine the NGF content with enzyme-linked immunosorbent assay (ELISA).", "note": "Several values for one entry are separate records, joined by “and”; a condition that tells them apart may be missing. Equal entries are not always repeated.", "data": [{"smiles": "COc1cc2c(cc1OC)C(=O)C(CC1CCN(Cc3ccccc3)CC1)C2", "note": "(centres unmarked) [Donepezil]", "values": [{"measurement": "Arrival Time of Platform", "setting": "Day 1, n = 10", "value": "77.03 ± 29.92", "unit": "s"}, {"measurement": "Arrival Time of Platform", "setting": "Day 2, n = 10", "value": "39.10 ± 26.36", "unit": "s"}, {"measurement": "Arrival Time of Platform", "setting": "Day 3, n = 10", "value": "34.98 ± 23.42", "unit": "s"}, {"measurement": "Arrival Time of Platform", "setting": "Day 4, n = 10", "value": "31.10 ± 23.26", "unit": "s"}, {"measurement": "Arrival Time of Platform", "setting": "Day 5, n = 10", "value": "30.00 ± 21.11", "unit": "s"}, {"measurement": "Arrival Time of Platform", "setting": "Day 6, n = 10", "value": "28.43 ± 23.45", "unit": "s"}, {"measurement": "Frequencies of crossing platform location within two minutes", "setting": "day 7, individual rats No. 1-10, Donepezil 1 mg/kg", "value": "14 and 11 and 22 and 19 and 10 (2×) and 13 and 8 and 6 and 7"}, {"measurement": "Frequencies of crossing platform location within two minutes, Mean ± SD", "setting": "day 7, n = 10, Donepezil 1 mg/kg", "value": "12.00 ± 5.16"}]}]}
